Laboratory results from patent publication US8188078B2 (Sanofi-Aventis, priority 2007, dated 2012).
pIC50: −log10 of the molar value. Structures can show the parent of a compound that is named as a salt.

What was measured:
MET = biological target: T1, MET (Homo sapiens, UniProt P08581); assay: Test C: inhibition of the autophosphorylation of MET, ELISA technique (pppY1230, 1234, 1235), MKN45 cells; format: cell-based
T1 construct: endogenous in cells; host or cells: MKN45 cells
In short: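 MKN45 cells adhered 24 h, then treated 1 h with compound at 6 concentrations in duplicate, final range 10000 to 30 nM. Lysates assayed by phospho-MET (pY1230/1234/1235) sandwich ELISA with HRP chromogen read at 450 nm.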

MKN45 cells = assay: Test D: cellular proliferation by 14C-thymidine pulse, MKN45 cells; format: cell-based; conditions: cell line not stated (HCT116 or MKN45)
In short: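 MKN45 cells (7500/well, RPMI + 10% foetal calf serum) treated with 10 concentrations, 10000 to 0.3 nM in 3-fold steps, duplicate. 14C-thymidine (0.1 μCi/well) added at 72 h; incorporation counted after 24 h pulse, 96 h total treatment.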

[1] = Homo sapiens, MKN-45, cellular proliferation by 14C-thymidine pulse
[2] = cellular proliferation by 14C-thymidine pulse

T1 sequence (P08581 25-1390): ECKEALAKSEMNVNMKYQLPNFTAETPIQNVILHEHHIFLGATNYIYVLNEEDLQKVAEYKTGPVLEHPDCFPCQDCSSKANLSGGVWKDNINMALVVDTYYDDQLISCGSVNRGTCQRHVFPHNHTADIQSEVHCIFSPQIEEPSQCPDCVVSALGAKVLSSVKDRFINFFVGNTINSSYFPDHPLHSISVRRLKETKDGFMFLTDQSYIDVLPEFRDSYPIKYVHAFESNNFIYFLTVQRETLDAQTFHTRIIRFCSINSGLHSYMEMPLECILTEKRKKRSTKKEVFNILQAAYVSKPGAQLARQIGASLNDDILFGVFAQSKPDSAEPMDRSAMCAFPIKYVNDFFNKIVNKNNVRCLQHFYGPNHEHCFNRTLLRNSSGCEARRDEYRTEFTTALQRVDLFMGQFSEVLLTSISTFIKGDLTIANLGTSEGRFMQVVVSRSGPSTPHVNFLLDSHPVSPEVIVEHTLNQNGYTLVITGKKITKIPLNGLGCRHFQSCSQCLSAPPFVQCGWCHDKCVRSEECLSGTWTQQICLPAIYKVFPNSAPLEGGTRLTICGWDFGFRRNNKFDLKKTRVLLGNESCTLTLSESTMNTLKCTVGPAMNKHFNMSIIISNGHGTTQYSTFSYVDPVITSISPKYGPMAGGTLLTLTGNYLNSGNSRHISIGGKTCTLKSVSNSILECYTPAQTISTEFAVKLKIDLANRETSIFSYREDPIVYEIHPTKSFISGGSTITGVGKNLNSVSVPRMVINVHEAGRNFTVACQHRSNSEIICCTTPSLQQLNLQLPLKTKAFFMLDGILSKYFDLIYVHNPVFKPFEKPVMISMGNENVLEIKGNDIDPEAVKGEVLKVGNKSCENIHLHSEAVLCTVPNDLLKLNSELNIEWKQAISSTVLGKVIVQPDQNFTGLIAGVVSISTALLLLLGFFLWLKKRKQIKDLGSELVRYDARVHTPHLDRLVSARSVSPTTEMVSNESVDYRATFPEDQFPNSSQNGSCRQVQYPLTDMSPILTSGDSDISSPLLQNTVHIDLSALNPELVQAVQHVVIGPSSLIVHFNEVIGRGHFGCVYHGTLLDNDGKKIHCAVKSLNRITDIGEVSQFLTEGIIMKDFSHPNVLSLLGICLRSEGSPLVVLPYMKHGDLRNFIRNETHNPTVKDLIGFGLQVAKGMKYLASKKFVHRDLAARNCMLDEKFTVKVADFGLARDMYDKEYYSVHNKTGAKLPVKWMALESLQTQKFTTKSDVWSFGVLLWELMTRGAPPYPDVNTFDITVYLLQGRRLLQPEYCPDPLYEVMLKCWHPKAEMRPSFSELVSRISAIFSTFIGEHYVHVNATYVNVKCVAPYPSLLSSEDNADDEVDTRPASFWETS

| Molecule | melting point [°C] | pIC50 (MET) | pIC50 (MKN45 cells; [1]) | pIC50 (MKN45 cells; [2]) |
| --- | --- | --- | --- | --- |
| CC(Oc1cc2sc(NC(=O)NCCN3CCCC3)nc2cc1F)c1c(F)ccc(Cl)c1Cl (stereo not shown) [Example 118, 1-{6-[1-(2,3-dichloro-6-fluorophenyl)ethoxy]-5-fluoro-1,3-benzothiazol-2-yl}-3-[2-(pyrrolidin-1-yl)ethyl]urea] | 191 | > 6.30 | 5.00 to 6.30 |  |
| CC(Oc1ccc2nc(NC(=O)NCCC3CCNCC3)sc2c1)c1c(Cl)ccc(F)c1Cl (stereo not shown) [Example 39, 1-{6-[1-(2,6-Dichloro-3-fluorophenyl)ethoxy]-1,3-benzothiazol-2-yl}-3-(2-piperidin-4-ylethyl)urea trifluoroacetate] |  | > 6.30 | 5.00 to 6.30 |  |
| CC(Oc1ccc2nc(NC(=O)NCCCN3CCC(Cc4ccccc4)CC3)sc2c1)c1c(Cl)ccc(F)c1Cl (stereo not shown) [Example 41, 1-[3-(4-benzylpiperidin-1-yl)propyl]-3-{6-[1-(2,6-dichloro-3-fluorophenyl)ethoxy]-1,3-benzothiazol-2-yl}urea] |  | 5.00 to 6.30 | < 5.00 |  |
| CC(Oc1ccc2nc(NC(=O)NCc3ccncc3)sc2c1)c1c(Cl)ccc(F)c1Cl (stereo not shown) [Example 57, 1-{6-[1-(2,6-dichloro-3-fluorophenyl)ethoxy]-1,3-benzothiazol-2-yl}-3-(pyridin-4-ylmethyl)urea] |  | 5.00 to 6.30 | < 5.00 |  |
| CC(Oc1ccc2nc(NC(=O)NCCN3CCN(C)CC3)sc2c1)c1c(F)ccc(Cl)c1Cl (single isomer, unassigned) [Example 109, 1-{6-[(1R*)-1-(2,3-dichloro-6-fluorophenyl)ethoxy]-1,3-benzothiazol-2-yl}-3-[2-(4-methylpiperazin-1-yl)ethyl]urea] |  | > 6.30 | > 6.30 |  |
| C[C@@H](Oc1cc2sc(NC(=O)NCCN3CCOCC3)nc2cc1F)c1c(Cl)ccc(F)c1Cl (single isomer, unassigned) [Example 32, 1-{6-[(1R)-(2,6-dichloro-3-fluorophenyl)ethoxy]-5-fluoro-1,3-benzothiazol-2-yl}-3-(2-morpholin-4-ylethyl)urea or 1-{6-[(1S)-(2,6-dichloro-3-fluorophenyl)ethoxy]-5-fluoro-1,3-benzothiazol-2-yl}-3-(2-morpholin-4-ylethyl)urea] |  | > 6.30 |  | 5.00 to 6.30 |
| CC(Oc1cc2sc(NC(=O)NCCN3CCOCC3)nc2cc1F)c1c(F)ccc(Cl)c1Cl (single isomer, unassigned) [Example 113, 1-{6-[(1S*)-1-(2,3-dichloro-6-fluorophenyl)ethoxy]-5-fluoro-1,3-benzothiazol-2-yl}-3-[2-(morpholin-4-yl)ethyl]urea] |  | > 6.30 |  | 5.00 to 6.30 |
| CC(Oc1ccc2nc(NC(=O)NCCC3CCCN3C)sc2c1)c1c(Cl)ccc(F)c1Cl (stereo not shown) [Example 53, 1-{6-[1-(2,6-dichloro-3-fluorophenyl)ethoxy]-1,3-benzothiazol-2-yl}-3-[2-(1-methylpyrrolidin-2-yl)ethyl]urea] |  | > 6.30 | > 6.30 |  |
| CC(Oc1ccc2nc(NC(=O)NCCN3C(C)CCCC3C)sc2c1)c1c(Cl)ccc(F)c1Cl (stereo not shown) [Example 56, 1-{6-[1-(2,6-dichloro-3-fluorophenyl)ethoxy]-1,3-benzothiazol-2-yl}-3-[2-(2,6-dimethylpiperidin-1-yl)ethyl]urea] |  | > 6.30 | > 6.30 |  |
| CC(Oc1ccc2nc(NC(=O)NCCCN3CCCC3=O)sc2c1)c1c(Cl)ccc(F)c1Cl (stereo not shown) [Example 45, 1-{6-[1-(2,6-dichloro-3-fluorophenyl)ethoxy]-1,3-benzothiazol-2-yl}-3-[3-(2-oxopyrrolidin-1-yl)propyl]urea] |  | > 6.30 | 5.00 to 6.30 |  |
| CC(Oc1ccc2nc(NC(=O)OCCN3CCOCC3)sc2c1)c1c(Cl)ccc(F)c1Cl (stereo not shown) [Example 74] |  | > 6.30 | 5.00 to 6.30 |  |
| CC(Oc1ccc2nc(NC(=O)NCc3ccccn3)sc2c1)c1c(Cl)ccc(F)c1Cl (stereo not shown) [Example 58, 1-{6-[1-(2,6-dichloro-3-fluorophenyl)ethoxy]-1,3-benzothiazol-2-yl}-3-(pyridin-2-ylmethyl)urea] |  | 5.00 to 6.30 | < 5.00 |  |
| CC(Oc1ccc2nc(NC(=O)NCCN3CCCC3)sc2c1)c1c(Cl)ccc(F)c1Cl (stereo not shown) [Example 51, 1-{6-[1-(2,6-dichloro-3-fluorophenyl)ethoxy]-1,3-benzothiazol-2-yl}-3-(2-pyrrolidin-1-ylethyl)urea] |  | > 6.30 | 5.00 to 6.30 |  |
| CC(Oc1ccc2nc(NC(=O)NCCN3CCOCC3)sc2c1)c1c(Cl)ccc(F)c1Cl (single isomer, unassigned) [Example 25, 1-{6-[(1R*)-(2,6-dichloro-3-fluorophenyl)ethoxy]-1,3-benzothiazol-2-yl}-3-(2-morpholin-4-ylethyl)urea] |  | > 6.30 |  | > 6.30 |
| CC(Oc1cc2sc(NC(=O)NCCN3CCCC3)nc2cc1F)c1c(F)ccc(Cl)c1Cl (single isomer, unassigned) [Example 119, 1-{6-[(1R*)-1-(2,3-dichloro-6-fluorophenyl)ethoxy]-5-fluoro-1,3-benzothiazol-2-yl}-3-[2-(pyrrolidin-1-yl)ethyl]urea] |  | > 6.30 | > 6.30 |  |
| CC(Oc1ccc2nc(NC(=O)NCCN3CCCC3)sc2c1)c1c(F)ccc(Cl)c1Cl (single isomer, unassigned) [Example 121, 1-{6-[(1R*)-(2,3-dichloro-6-fluorophenyl)ethoxy]-1,3-benzothiazol-2-yl}-3-[2-(pyrrolidin-1-yl)ethyl]urea] |  | > 6.30 |  | > 6.30 |
| CC(Oc1ccc2nc(NC(=O)NCCCN3C(C)CCCC3C)sc2c1)c1c(Cl)ccc(F)c1Cl (stereo not shown) [Example 47, 1-{6-[1-(2,6-dichloro-3-fluorophenyl)ethoxy]-1,3-benzothiazol-2-yl}-3-[3-(2,6-dimethylpiperidin-1-yl)propyl]urea] |  | 5.00 to 6.30 | 5.00 to 6.30 |  |
| CC(Oc1cc2sc(NC(=O)NCCN3CCN(C)CC3)nc2cc1F)c1c(F)ccc(Cl)c1Cl (single isomer, unassigned) [Example 116, 1-{6-[(1R*)-1-(2,3-dichloro-6-fluorophenyl)ethoxy]-5-fluoro-1,3-benzothiazol-2-yl}-3-[2-(4-methylpiperazin-1-yl)ethyl]urea] |  | > 6.30 | > 6.30 |  |
| CC(Oc1cc2sc(NC(=O)NCCN3CCOCC3)nc2cc1F)c1c(F)ccc(Cl)c1Cl (single isomer, unassigned) [Example 112, 1-{6-[(1R*)-1-(2,3-dichloro-6-fluorophenyl)ethoxy]-5-fluoro-1,3-benzothiazol-2-yl}-3-[2-(morpholin-4-yl)ethyl]urea] |  | > 6.30 | > 6.30 |  |
| {6-[1-(2,6-dichloro-3-fluorophenyl)ethoxy]-5-fluoro-1,3-benzothiazol-2-yl}2-(pyrrolidin-1-yl)ethyl carbamate [Example 73] |  | 5.00 to 6.30 |  | 5.00 to 6.30 |
| CC(Oc1ccc2nc(NC(=O)NCc3cccnc3)sc2c1)c1c(Cl)ccc(F)c1Cl (stereo not shown) [Example 59, 1-{6-[1-(2,6-dichloro-3-fluorophenyl)ethoxy]-1,3-benzothiazol-2-yl}-3-(pyridin-3-ylmethyl)urea] |  | 5.00 to 6.30 | 5.00 to 6.30 |  |
| CC(Oc1ccc2nc(NC(=O)NCCN3CCCCC3)sc2c1)c1c(Cl)ccc(F)c1Cl (stereo not shown) [Example 50, 1-{6-[1-(2,6-dichloro-3-fluorophenyl)ethoxy]-1,3-benzothiazol-2-yl}-3-(2-piperidin-1-ylethyl)urea] |  | > 6.30 | 5.00 to 6.30 |  |
| CC(Oc1ccc2nc(NC(=O)NCCCN3CCOCC3)sc2c1)c1c(Cl)ccc(F)c1Cl (stereo not shown) [Example 42, 1-{6-[1-(2,6-dichloro-3-fluorophenyl)ethoxy]-1,3-benzothiazol-2-yl}-3-(3-morpholin-4-ylpropyl)urea] |  | > 6.30 | 5.00 to 6.30 |  |
| CCN(CC)CCCOC(=O)Nc1nc2cc(F)c(OC(C)c3c(Cl)ccc(F)c3Cl)cc2s1 (stereo not shown) [Example 70] |  | 5.00 to 6.30 | 5.00 to 6.30 |  |
| CC(Oc1ccc2nc(NC(=O)NCCCn3cccc3)sc2c1)c1c(Cl)ccc(F)c1Cl (stereo not shown) [Example 40, 1-{6-[1-(2,6-dichloro-3-fluorophenyl)ethoxy]-1,3-benzothiazol-2-yl}-3-[3-(1H-pyrrol-1-yl)propyl]urea] |  | 5.00 to 6.30 | < 5.00 |  |
| CC(Oc1ccc2nc(NC(=O)NCCCN(C)C)sc2c1)c1c(Cl)ccc(F)c1Cl (stereo not shown) [Example 43, 1-{6-[1-(2,6-dichloro-3-fluorophenyl)ethoxy]-1,3-benzothiazol-2-yl}-3-[3-(dimethylamino)propyl]urea] |  | > 6.30 | < 5.00 |  |
| CC(Oc1ccc2nc(NC(=O)NCCN3CCCCCC3)sc2c1)c1c(Cl)ccc(F)c1Cl (stereo not shown) [Example 54, 1-(2-azepan-1-ylethyl)-3-{6-[1-(2,6-dichloro-3-fluorophenyl)ethoxy]-1,3-benzothiazol-2-yl}urea] |  | > 6.30 | 5.00 to 6.30 |  |
| CC(Oc1ccc2nc(NC(=O)NCCN3CCOCC3)sc2c1)c1ccccc1C(F)(F)F (stereo not shown) [Example 19, 1-(2-morpholin-4-ylethyl)-3-(6-{1-[2-(trifluoromethyl)phenyl]ethoxy}-1,3-benzothiazol-2-yl)urea] |  | 5.00 to 6.30 | < 5.00 |  |
| CC(Oc1ccc2nc(NC(=O)NCCN3CCN(C)CC3)sc2c1)c1c(Cl)ccc(F)c1Cl (stereo not shown) [Example 55, 1-{6-[1-(2,6-dichloro-3-fluorophenyl)ethoxy]-1,3-benzothiazol-2-yl}-3-[2-(4-methylpiperazin-1-yl)ethyl]urea] |  | > 6.30 | > 6.30 |  |
| CCN1CCN(CCNC(=O)Nc2nc3cc(F)c(OC(C)c4c(Cl)ccc(F)c4Cl)cc3s2)CC1 (single isomer, unassigned) [Example 101, 1-{6-[(1R*)-1-(2,6-dichloro-3-fluorophenyl)ethoxy]-5-fluoro-1,3-benzothiazol-2-yl}-3-[2-(4-ethylpiperazin-1-yl)ethyl]urea] |  | > 6.30 | > 6.30 |  |
